One test has as its target T1, Human recombinant PDE4B (Homo sapiens, UniProt Q07343).
T1 construct: made in house; host or cells: Saccharomyces cerevisiae strain GL62
Briefly: Inhibition of PDE activity: luciferase-coupled PDE assay (PDE4B). The test is classed as biochemical. The conditions noted are these: active if pIC50 of about 6 to 10.4 or greater against PDE4B; listed examples found to be the most active. The source says: Human recombinant PDE4B, in particular the 2B splice variant thereof (HSPDE4B2B), is disclosed in WO 94/20079 and also in M. M. McLaughlin et al., “A low Km, rolipram-sensitive, cAMP-specific phosphodiesterase from human brain: cloning and expression of cDNA, biochemical characterization of recombinant protein, and tissue distribution of mRNA”, J. Biol. Chem., 1993, 268, 6470-6476. For example, in Example 1 of WO 94/20079, human recombinant PDE4B is described as being expressed in the PDE-deficient yeast Saccharomyces cerevisiae strain GL62. PDE4B expression is induced by the addition of 150 μM CuSO4.
For luminescence-coupled assay based screening the supernatant fractions of yeast cell lysates are subjected to Cibacron blue affinity chromatography, dialysis and desalting, to enrich for PDE4B and to remove components, e.g. ATP, able to interfere with the assay. Human recombinant PDE4D (HSPDE4D3A) is disclosed in P. A. Baecker et al., “Isolation of a cDNA encoding a human rolipram-sensitive cyclic AMP phosphodiesterase (PDE IVD)”, Gene, 1994, 138, 253-256. Expression of human PDE4D in yeast, and subsequent preparation of the recombinant protein for assay was as described for PDE4B.
Inhibition of PDE4B and PDE4D are measured using a luminescence-coupled assay system developed by Cambrex. This assay system couples the formation of AMP, derived from PDE4-catalyzed hydrolysis of cAMP, to the formation of ATP. The ATP is then used as a substrate for Luciferase and results in light as a signal output. […] The luminescence is then measured on a Viewlux imager (Perkin Elmer) using emission filters of 613/55 nm or 618/40 nm and a 5 second exposure. […] Curves were analyzed using ActivityBase and XL fit, and results are expressed as pIC50 values. […]
Curves were analyzed using ActivityBase and XLfit, and results are expressed as pIC50 values. […]

Test [1] has as its system M1, M2 (w/Gqi5) and M3 ACh receptors stably expressed in CHO cells. Kind of test: Calcium mobilization (FLIPR) IC50 determination for antagonists, inhibition of ACh induced muscarinic receptor activation. The test is classed as cell-based, human. The conditions noted are these: EC80 ACh, active if IC50 of between 33 uM and 10 nM or less, listed examples found to be the most active. The source says:
Studies to determine the effectiveness of antagonists to cause blockade of functional intracellular calcium fluxes following agonist (ACh) treatment of cloned human receptors.
This system is used for characterizations of antagonist-receptor interactions using four distinct variations of the FLIPR methodology: (a) potency: IC50 determination, (b) potency: pA2 determination, (c) reversibility of antagonist-receptor interaction, or (d) confirmation of no functional agonist activity. Cell Source The human M1-M3 receptors are cloned and stably expressed in Chinese Hamster Ovary (CHO) cells. The M2 receptors are co-expressed with the chimeric G protein, Gqi5. […] The emitted fluorescence from all 96 wells is measured simultaneously using a cooled CCD camera. […] Experimental Protocols: Cell plating: A microtiter plate based calcium mobilization FLIPR (Fluorometric Imaging Plate Reader, Molecular Devices, Sunnyvale Calif., [Schroeder K S, Neagle, B D. FLIPR: a new instrument for accurate, high throughput optical screening. J. Biomol. Screen. 1996; 1:75.]) assay is used for the functional characterization of compounds against M1, M2 (w/Gqi5) and M3 ACh receptors stably expressed in CHO cells. […]
For orientation: Calcium assays in cells follow changes in intracellular calcium, usually with a dye or a luminescent sensor.

T1 sequence (Q07343 1-564 isoform Q07343-2): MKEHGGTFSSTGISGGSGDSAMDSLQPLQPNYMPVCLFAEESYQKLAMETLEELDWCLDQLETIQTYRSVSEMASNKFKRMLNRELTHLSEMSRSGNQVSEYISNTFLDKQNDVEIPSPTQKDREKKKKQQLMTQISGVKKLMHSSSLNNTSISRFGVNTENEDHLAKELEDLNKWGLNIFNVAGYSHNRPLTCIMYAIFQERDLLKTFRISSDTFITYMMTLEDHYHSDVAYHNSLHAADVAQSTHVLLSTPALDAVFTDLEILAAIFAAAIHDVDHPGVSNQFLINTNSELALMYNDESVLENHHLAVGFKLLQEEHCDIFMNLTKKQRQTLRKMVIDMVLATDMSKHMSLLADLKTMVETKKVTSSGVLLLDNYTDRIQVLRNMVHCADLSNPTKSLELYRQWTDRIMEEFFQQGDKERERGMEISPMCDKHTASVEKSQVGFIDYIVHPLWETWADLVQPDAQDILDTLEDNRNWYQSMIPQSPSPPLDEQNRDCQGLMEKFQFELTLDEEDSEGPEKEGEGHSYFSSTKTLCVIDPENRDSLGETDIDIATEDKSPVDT

Take `CCc1nc2c(cnn2CC)c(NC2CCOCC2)c1CNC(=O)CC(=O)NCc1ccc(F)c(-c2cccc(CN3C[C@@H](C)N[C@@H](C)C3)c2)c1` [Example 217, N-{[1,6-diethyl-4-(tetrahydro-2H-pyran-4-ylamino)-1H-pyrazolo[3,4-b]pyridin-5-yl]methyl}-N′-[(3′-{[(3R,5S)-3,5-dimethyl-1-piperazinyl]methyl}-6-fluoro-3-biphenylyl)methyl]propanediamide]: the “activity in the PDE4B assay (pIC50)” value at Human recombinant PDE4B is listed as “most active”.
In the case of `CCc1nc2c(cnn2CC)c(NC2CCOCC2)c1CNC(=O)CCC(=O)NCc1ccc(Cl)c(-c2cccc(CN3CCN[C@@H](C)C3)c2)c1` [Example 265, N-[(6-chloro-3′-{[(3S)-3-methyl-1-piperazinyl]methyl}-3-biphenylyl)methyl]-N′-{[1,6-diethyl-4-(tetrahydro-2H-pyran-4-ylamino)-1H-pyrazolo[3,4-b]pyridin-5-yl]methyl}butanediamide], at Human recombinant PDE4B, the “activity in the PDE4B assay (pIC50)” value is “most active”.
Regarding `CCc1nc2c(cnn2CC)c(NC2CCOCC2)c1CNC(=O)CCC(=O)NCc1ccc(F)c(-c2cccc(CN3CCN[C@H](C)C3)c2)c1` [Example 267, N-{[1,6-diethyl-4-(tetrahydro-2H-pyran-4-ylamino)-1H-pyrazolo[3,4-b]pyridin-5-yl]methyl}-N′-[(6-fluoro-3′-{[(3R)-3-methyl-1-piperazinyl]methyl}-3-biphenylyl)methyl]butanediamide], the “activity in the PDE4B assay (pIC50)” value at Human recombinant PDE4B was “most active”.
In the case of `CCc1nc2c(cnn2CC)c(NC2CCOCC2)c1CNC(=O)CC(=O)NCc1cccc(-c2cccc(CN3CCCNCC3)c2)c1` [Example 180, N-{[1,6-Diethyl-4-(tetrahydro-2H-pyran-4-ylamino)-1H-pyrazolo[3,4-b]pyridin-5-yl]methyl}-N′-{[3′-(hexahydro-1H-1,4-diazepin-1-ylmethyl)-3-biphenylyl]methyl}propanediamide], the “activity in FLIPR antagonist IC50 assay (inhibition of ACh induced response)” value in test [1] was “most active”.
As to `CCc1nc2c(cnn2CC)c(NC2CCOCC2)c1CNC(=O)CCCC(=O)NCc1ccc(F)c(-c2cccc(CN3C[C@@H]4C[C@@H]3CN4Cc3ccccc3)c2)c1` [Example 193, N-{[1,6-diethyl-4-(tetrahydro-2H-pyran-4-ylamino)-1H-pyrazolo[3,4-b]pyridin-5-yl]methyl}-N′-[(6-fluoro-3′-{[(1R,4S)-5-(phenylmethyl)-2,5-diazabicyclo[2.2.1]hept-2-yl]methyl}-3-biphenylyl)methyl]pentanediamide], the “activity in FLIPR antagonist IC50 assay (inhibition of ACh induced response)” value in test [1] is on record as “most active”.

For the origin of these results see US8071588B2, “Dual pharmacophores—PDE4-muscarinic antagonistics” (Glaxo Group Limited, priority 2008, dated 2011).
